Reference: patent publication US4263294A, “Maytansinoids, pharmaceutical compositions thereof and method of use thereof” (Takeda Chemical Industries, Ltd., priority 1978, dated 1981)
≈ marks a conversion by molar mass, not a printed value.

What was measured:
[1] = tested on: melanoma B-16 tumor cells; test: Antitumor activity, life span prolongation in mice with intraperitoneally transplanted melanoma B-16 (NCI protocol 1,300); assay type: in vivo; settings: intraperitoneally once daily for 9 consecutive days
Method: Therapeutic tests were carried out in mice according to NCI-protocol 1,300, Cancer Chemother, Reports, Part 3, 1972, Vol. 3, No. 2, in which melanoma B-16 tumor cells had been intraperitoneally transplanted, compound (I) being administered intraperitoneally once daily for 9 consecutive days.

[2] = tested on: Tetrahymena pyriformis W; test: Antiprotozoal activity, growth inhibition by serial dilution method; assay type: cell-based; settings: 28° C., 44 to 48 hours, pH 7.0, serial dilution method
Method: Antiprotozoal activity of compound (I) was assayed with Tetrahymena pyriformis W as the test organism and a medium composed of 20 g tryptose-peptone (Difco Co.), 1 g yeast extract, 2 g glucose, 1000 ml distilled water, 10 ml 1 M phosphate buffer (pH 7.0) as the assay medium. The microorganism was incubated at 28° C. for 44 to 48 hours and the growth inhibitory activity of compound (I) was assayed by the serial dilution method.

| Compound | Antitumor activities B-16 (T/C%) ([1]; 100 μg/kg) | Antitumor activities B-16 (T/C%) ([1]; 200 μg/kg) | Antitumor activities B-16 (T/C%) ([1]; 400 μg/kg) | MIC [2] | Antitumor activities B-16 (T/C%) ([1]; 50 μg/kg) |
| --- | --- | --- | --- | --- | --- |
| COc1cc2cc(c1Cl)N(C)C(=O)CC(OC(=O)Nc1ccccc1)C1(C)OC1C(C)C1CC(O)(NC(=O)O1)C(OC)C=CC=C(C)C2 (centres unmarked) [Maytansinol 3-(N-phenyl)carbamate, maytansinol 3-N-phenylcarbamate] | 123% | 151% | 161% | ≥ 8 µg/mL |  |
| COc1cc2cc(c1Cl)N(C)C(=O)CC(OC(=O)OC(C)C)C1(C)OC1C(C)C1CC(O)(NC(=O)O1)C(OC)C=CC=C(C)C2 (centres unmarked) [Maytansinol 3-isopropylcarbonate, maytansinol 3-isopropylcarbonate] | 171% | 171% |  | 4 to 8 µg/mL (≈ 6.14 to 12.3 µM) | 150% |
